From ChEMBL document CHEMBL4422646, “Synthesis and biological evaluation of 3-amino-, 3-alkoxy- and 3-aryloxy-6-(hetero)arylpyridazines as potent antitumor agents” (Bioorg Med Chem Lett, 2019)
Active and inactive are the calls of the source. The rule behind the calls is not given here.

Assays:
MDA-MB-231 [1] = test: Antiproliferative activity against human MDA-MB-231 cells after 48 hrs by Hoechst 33342 staining-based assay; type: functional, cell-based; conditions: MDA-MB-231, 48 h
NCI-H727 [2] = test: Antiproliferative activity against human NCI-H727 cells at 0.1 to 25 uM after 48 hrs by Hoechst 33342 staining-based assay relative to control; type: functional
HCT-116 [3] = test: Antiproliferative activity against human HCT116 cells after 48 hrs by Hoechst 33342 staining-based assay; type: functional, cell-based; conditions: HCT-116, 48 h
Caco-2 = test: Antiproliferative activity against human Caco2 cells after 48 hrs by Hoechst 33342 staining-based assay; type: functional, cell-based; conditions: Caco-2, 48 h
MDA-MB-468 = test: Anticlonogenic activity against human MDA-MB-468 cells harboring luciferase reporter gene after 2 weeks by Giemsa staining-based assay; type: functional, cell-based; conditions: MDA-MB-468, 336 h
Fibroblast [4] = test: Antiproliferative activity against human fibroblast cells after 48 hrs by Hoechst 33342 staining-based assay; type: cell-based
PC-3 [5] = test: Antiproliferative activity against human PC3 cells after 48 hrs by Hoechst 33342 staining-based assay; type: functional, cell-based; conditions: PC-3, 48 h
[6] = target: Mitogen-activated protein kinase; ERK1/ERK2 (Homo sapiens) (UniProt P27361+P28482); test: Inhibition of EGF-stimulated p44/42 phosphorylation in human MDA-MB-468-Luc cells at 10^-5 M pre-incubated for 1 hr before EGF stimulation for 15 mins by Western blot analysis relative to control; type: cell-based
Mitogen-activated protein kinase; ERK1/ERK2 (Homo sapiens), sequence (P27361 whole entry, looked up): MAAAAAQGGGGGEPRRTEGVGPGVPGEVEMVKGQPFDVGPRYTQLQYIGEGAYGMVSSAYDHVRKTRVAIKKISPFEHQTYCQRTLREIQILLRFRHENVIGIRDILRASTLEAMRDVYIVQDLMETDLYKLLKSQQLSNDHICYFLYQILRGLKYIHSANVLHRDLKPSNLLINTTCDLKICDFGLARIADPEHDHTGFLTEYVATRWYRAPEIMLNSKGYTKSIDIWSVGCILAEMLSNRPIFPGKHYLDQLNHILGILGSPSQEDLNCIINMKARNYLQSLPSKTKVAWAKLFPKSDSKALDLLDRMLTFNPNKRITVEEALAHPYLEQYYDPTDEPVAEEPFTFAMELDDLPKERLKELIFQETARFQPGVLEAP
Mitogen-activated protein kinase; ERK1/ERK2 (Homo sapiens), sequence (P28482 whole entry, looked up): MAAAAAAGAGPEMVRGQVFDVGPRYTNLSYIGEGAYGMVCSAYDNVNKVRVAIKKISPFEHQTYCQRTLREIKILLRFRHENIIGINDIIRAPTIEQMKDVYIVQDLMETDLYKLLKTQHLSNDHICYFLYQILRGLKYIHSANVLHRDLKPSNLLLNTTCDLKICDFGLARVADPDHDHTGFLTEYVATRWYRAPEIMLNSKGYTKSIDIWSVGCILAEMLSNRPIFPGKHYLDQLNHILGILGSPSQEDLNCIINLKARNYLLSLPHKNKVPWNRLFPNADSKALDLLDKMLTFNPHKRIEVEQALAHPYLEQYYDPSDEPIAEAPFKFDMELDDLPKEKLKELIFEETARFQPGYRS

MDA-MB-231 [7] = test: Antiproliferative activity against human MDA-MB-231 cells at 0.1 to 25 uM after 48 hrs by Hoechst 33342 staining-based assay relative to control; type: functional
NCI-H727 [8] = test: Antiproliferative activity against human NCI-H727 cells after 48 hrs by Hoechst 33342 staining-based assay; type: functional, cell-based; conditions: NCI-H727, 48 h
HaCaT [9] = test: Antiproliferative activity against human HaCaT cells at 0.1 to 25 uM after 48 hrs by Hoechst 33342 staining-based assay relative to control; type: cell-based
HaCaT [10] = test: Antiproliferative activity against human HaCaT cells after 48 hrs by Hoechst 33342 staining-based assay; type: cell-based
Huh-7 [11] = test: Antiproliferative activity against human HuH7 cells after 48 hrs by Hoechst 33342 staining-based assay; type: functional, cell-based; conditions: Huh-7, 48 h
Huh-7 [12] = test: Antiproliferative activity against human HuH7 cells at 0.1 to 25 uM after 48 hrs by Hoechst 33342 staining-based assay relative to control; type: functional
HCT-116 [13] = test: Antiproliferative activity against human HCT116 cells at 0.1 to 25 uM after 48 hrs by Hoechst 33342 staining-based assay relative to control; type: functional
Fibroblast [14] = test: Antiproliferative activity against human fibroblast cells at 0.1 to 25 uM after 48 hrs by Hoechst 33342 staining-based assay relative to control; type: cell-based
HepaRG = test: Hepatotoxicity in human HepaRG cells at 2.5 uM after 48 hrs; type: toxicity, cell-based
[15] = Toxicity in zebrafish embryos at 2.5 uM after 72 hrs; design: species or system Danio rerio; conditions: in vivo
[16] = target: RAC-alpha serine/threonine-protein kinase (Homo sapiens) (UniProt P31749); test: Inhibition of EGF-stimulated Akt phosphorylation in human MDA-MB-468-Luc cells at 10^-5 M pre-incubated for 1 hr before EGF stimulation for 15 mins by Western blot analysis relative to control; type: cell-based
RAC-alpha serine/threonine-protein kinase (Homo sapiens), sequence (P31749 whole entry): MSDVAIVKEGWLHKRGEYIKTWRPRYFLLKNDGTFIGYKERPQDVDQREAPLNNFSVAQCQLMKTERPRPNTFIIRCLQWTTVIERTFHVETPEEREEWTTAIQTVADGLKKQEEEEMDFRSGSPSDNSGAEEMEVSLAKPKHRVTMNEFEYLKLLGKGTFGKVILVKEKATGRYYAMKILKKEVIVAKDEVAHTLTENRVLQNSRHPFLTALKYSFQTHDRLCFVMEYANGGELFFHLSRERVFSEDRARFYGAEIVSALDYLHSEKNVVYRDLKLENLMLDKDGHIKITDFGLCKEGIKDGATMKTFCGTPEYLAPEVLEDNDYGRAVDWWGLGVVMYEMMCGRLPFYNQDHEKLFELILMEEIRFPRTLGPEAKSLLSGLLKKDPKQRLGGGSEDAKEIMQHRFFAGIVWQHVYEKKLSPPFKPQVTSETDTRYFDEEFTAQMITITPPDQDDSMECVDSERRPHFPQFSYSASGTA

[17] = Toxicity in zebrafish embryos assessed as alive embryo at 0.8 uM after 72 hrs; design: species or system Danio rerio; conditions: in vivo
[18] = Toxicity in zebrafish embryos assessed as reduction in eye size at 2.5 uM after 72 hrs; design: species or system Danio rerio; conditions: in vivo
[19] = Toxicity in zebrafish embryos assessed as effect on embryo development at 0.8 uM after 72 hrs; design: species or system Danio rerio; conditions: in vivo
PC-3 [20] = test: Antiproliferative activity against human PC3 cells at 0.1 to 25 uM after 48 hrs by Hoechst 33342 staining-based assay relative to control; type: functional
[21] = Toxicity in zebrafish embryos assessed as reduction in eye size at 0.8 uM after 72 hrs; design: species or system Danio rerio; conditions: in vivo
[22] = Toxicity in zebrafish embryos assessed as effect on embryo mobility at 0.8 uM after 72 hrs; design: species or system Danio rerio; conditions: in vivo

IC50 (MDA-MB-231 [1]) [µM]	IC50 (HCT-116 [3]) [µM]	IC50 (Caco-2) [µM]	IC50 (MDA-MB-468) [nM]	IC50 (PC-3 [5]) [µM]	inhibition [6]	IC50 (NCI-H727 [8]) [µM]	IC50 (Huh-7 [11]) [µM]	SMILES	Activity (NCI-H727 [2]) [%]	IC50 (Fibroblast [4]) [µM]	Activity (MDA-MB-231 [7]) [%]	Activity (HaCaT [9]) [%]	IC50 (HaCaT [10]) [µM]	Activity (Huh-7 [12]) [%]	Activity (HCT-116 [13]) [%]	Activity (Fibroblast [14]) [%]	Activity (PC-3 [20]) [%]	other results
5	6	15	650	> 25	< 50%	25	25	CCN(CC)c1ccc(-c2ccc(C(C)=O)cc2)nn1	80	> 25	60	80	20	80	100	–	–	–
0.14	0.06	0.25	15	0.09	70%	0.09	0.09	CCN(CC)c1ccc(-c2ccc(C(=O)OC)cc2)nn1	60	0.1	60	85	0.08	60	100	40	72	Activity (HepaRG): Non-Toxic; Activity [15]: Toxic; inhibition [16]: > 70%; Activity [17]: Non-Toxic; Activity [18]: Toxic; Activity [19]: Non-Toxic; Activity [21]: Non-Toxic; Activity [22]: Non-Toxic
> 25	> 25	> 25	–	> 25	–	30	> 25	CCOC(=O)c1cccc(-c2ccc(N(CC)CC)nn2)c1	40	> 25	–	–	> 25	–	–	–	–	–
8	3	0.8	–	1.2	–	> 25	6	Oc1cccc(-c2nc(N3CCOCC3)c3oc4ncccc4c3n2)c1 [PI-103]	–	> 25	40	70	2	40	80	–	60	–
> 25	> 25	> 25	26000	> 25	inactive	> 25	> 25	CCOC(=O)c1ccc(-c2ccc(N(C)C)nn2)cc1	–	> 25	–	–	–	–	–	–	–	inhibition [16]: inactive
> 25	> 25	> 25	3500	> 25	inactive	> 25	> 25	COC(=O)c1ccc(-c2ccc(N(C)C)nn2)cc1	–	> 25	–	–	–	–	–	–	–	inhibition [16]: inactive
> 25	> 25	50	–	> 25	–	> 25	30	CC(=O)c1ccc(-c2ccc(N3CCCC3)nn2)cc1	–	> 25	–	–	> 25	75	–	–	–	–
> 25	> 25	50	–	> 25	–	> 25	30	COC(=O)c1cccc(-c2ccc(-n3cccc3)nn2)c1	–	> 25	–	–	> 25	75	–	–	–	–
0.012	0.05	0.09	–	0.08	–	0.03	0.03	COc1cccc2c1C(=O)c1c(O)c3c(c(O)c1C2=O)C[C@@](O)(C(=O)CO)C[C@@H]3O[C@H]1C[C@H](N)[C@H](O)[C@H](C)O1 [DOXORUBICIN]	60	0.005	50	70	0.03	40	80	40	80	–
> 25	> 25	50	–	> 25	–	> 25	30	Cc1ccc(-c2ccc(N3CCN(c4ccccc4)CC3)nn2)cc1	–	> 25	–	–	> 25	75	–	–	–	–
> 25	> 25	50	–	> 25	–	> 25	30	FC(F)(F)c1cccc(-c2ccc(N3CCCC3)nn2)c1	–	> 25	–	–	> 25	75	–	–	–	–
0.06	< 0.001	–	–	< 0.001	–	–	0.012	CC(=O)O[C@H]1C(=O)[C@@]2(C)[C@H]([C@H](OC(=O)c3ccccc3)[C@]3(O)C[C@H](OC(=O)[C@H](O)[C@@H](NC(=O)c4ccccc4)c4ccccc4)C(C)=C1C3(C)C)[C@]1(OC(C)=O)CO[C@@H]1C[C@@H]2O [PACLITAXEL]	–	< 0.001	60	70	0.002	50	90	30	60	–
> 25	> 25	50	–	> 25	–	> 25	30	COc1ccc(Nc2ccc(-c3ccccc3)nn2)cc1	–	> 25	–	–	> 25	75	–	–	–	–
1.5	0.5	4	120	1	70%	1.5	9	CCOC(=O)c1ccc(-c2ccc(N(CC)CC)nn2)cc1	60	3	70	80	0.5	60	90	40	80	Activity (HepaRG): Non-Toxic; Activity [15]: Toxic; inhibition [16]: Active; Activity [17]: Non-Toxic; Activity [19]: Non-Toxic; Activity [22]: Non-Toxic

SMILES	IC50 (MDA-MB-231 [1]) [µM]	IC50 (HCT-116 [3]) [µM]	IC50 (Caco-2) [µM]	IC50 (MDA-MB-468) [nM]	IC50 (PC-3 [5]) [µM]	inhibition [6]	IC50 (NCI-H727 [8]) [µM]	IC50 (Huh-7 [11]) [µM]	Activity (NCI-H727 [2]) [%]	IC50 (Fibroblast [4]) [µM]	Activity (MDA-MB-231 [7]) [%]	Activity (HaCaT [9]) [%]	IC50 (HaCaT [10]) [µM]	Activity (Huh-7 [12]) [%]	Activity (HCT-116 [13]) [%]	Activity (Fibroblast [14]) [%]	Activity (PC-3 [20]) [%]	other results
CC[C@H](CO)Nc1nc(NCc2ccccc2)c2ncn(C(C)C)c2n1 [SELICICLIB]	–	9	–	–	12	–	–	20	40	12	80	80	12	90	100	40	8	–
